The text below walks through data of patent US12629419B2, “Prevention or mitigation of T-cell engaging agent-related adverse effects” (Hoffmann-La Roche Inc., priority 2020, dated 2026).

Entries after “also recorded” stand apart in the source; their conditions may differ.

One assay has as its system WSU DLCL2 tumor cells. The assay can be described thus: CD20-TCB killing assay, inhibitors added after 18 hours of activation: tumor cell killing. The format is cell-based. The note with it: 100 nM added at 18 h. Here is the method:
FIG. 34. In vitro killing assay set-up. Cell Trace™ Violet (CTV) labelled WSU DLCL2 tumor cells were co-cultured together with PBMCs [E:T=200′000:20′000] and stimulated with CD20-TCB for 18 h.
In this assay, CTV labelled WSU DLCL2 tumors cells were co-cultured with PBMCs in the presence of escalating doses of CD20-TCB for 18 hours.

The test system of another assay is SUDLH-8 tumor cells. The assay can be described thus: killing assay with PBMCs, CTV labelled SUDLH-8 tumor cells and CD19-TCB. The format is cell-based. The note with it: 24 hrs; 100 nM kinase inhibitors or dexamethasone, 5 μg/mL antibodies. Here is the method: FIG. 64. In vitro killing assay set-up. PBMCs were co-cultured with CellTrace™ Violet (CTV) labelled SUDLH-8 tumor cells (E:T=10:1) in the presence of escalating concentrations of CD19-TCB in media supplemented with the different kinase inhibitors (100 nM) for 24 hrs.
FIG. 69. In vitro killing assay set-up. PBMCs were co-cultured with CTV labelled SUDLH-8 cells (E:T=10:1) in the presence of escalating concentrations of CD19-TCB in media supplemented with the different JAK inhibitors (100 nM) for 24 hrs.
FIG. 73. In vitro killing assay set-up.
PBMCs were co-cultured together with CellTrace™ Violet (CTV) labelled SUDLH-8 tumor cells and escalating concentrations of CD19-TCB in the presence of the different kinase inhibitors, including also the Src inhibitor dasatinib (FIG. 64). At assay endpoint (24 hrs), the killing of CTV labelled SUDLH-8 cells was measured by flow cytometry by exclusion of the dead SUDLH-8 cells with a Live/Dead stain. […] Lastly, the levels of cytokines were measured in the supernatants of the assay to evaluate the effect of mTOR, JAK and Src inhibitors on CD19-TCB-induced cytokine release.
At assay endpoint (24 hrs), the killing of CTV labelled SUDLH-8 cells was measured by flow cytometry by exclusion of the dead SUDLH-8 cells with a Live/Dead stain. […] Lastly, the levels of cytokines were measured in the supernatants of the assay to assess the effect of the JAK inhibitors on CD19-TCB-induced cytokine release.
At assay endpoint (24 hrs), the killing of CTV labelled SUDLH-8 cells was measured by flow cytometry by exclusion of the dead SUDLH-8 cells with a Live/Dead stain to evaluate the effect of the different mitigation approaches on CD19-TCB-dependent killing. […] Lastly, the levels of cytokines were measured in the supernatants of the assay to address the effect of the JAK inhibitors on CD19-TCB-induced cytokine release.

The test system of the next assay is CD19+ B cells. The assay can be described thus: CD20-TCB-induced B cell depletion in non-tumor bearing humanized NSG mice. Format: in vivo. The note with it: 48 and 72 hours; 0.15 mg/kg CD20-TCB; p.o. 2, 5, 10 mg/kg sirolimus, 10 mg/kg everolimus, 10 mg/kg temsirolimus, ruxolitinib. Here is the method:
FIG. 95. In vivo experiment timelines and dosing schedule.
FIG. 96. […] The proportion of CD19+ B cells among human CD45+(huCD45) cells was measured by flow cytometry in the blood collected 48 hrs and 72 hrs post-treatment with CD20-TCB. Mean of n=4 mice or n=3 mice (everolimus group)+/−SEM. The statistical comparison to the vehicle group is summarized table (C) where the p values were calculated by Kruskal-Wallis test.
Different doses of mTOR, JAK and Src kinase inhibitors were tested to determine the optimal dose that reduces CD20-TCB-induced cytokine release while minimally interfering with B cell depletion. […] The doses of 30 and 60 mg/kg were tested for ruxolitinib and the doses of 10 and 50 mg/kg were tested for dasatinib. To reproduce the clinical route of administration, the different kinase inhibitors were given orally (p.o.) once or twice per day as depicted in FIG. 95. Mice were bled 4 hours and 24 hours after the treatment with CD20-TCB (FIG. 95) to collect serum for cytokine level measurements by Luminex. Additionally, blood was collected 48 hours and 72 hours (termination) post treatment with CD20-TCB to measure the percentage of CD19+ B cells among human CD45+ cells by flow cytometry (FIG. 95).

The test system of the next assay is NALM-6 tumors cells. The assay can be described thus: CD19-TCB killing assay with NALM-6 cells, inhibitors added after 24 hrs of activation: killing. Format: cell-based. The note with it: 100 nM added at 24 hrs; measured at 48 hrs. The protocol:
FIG. 78. In vitro killing assay set-up. PBMCs were co-cultured with CTV labelled NALM-6 cells (E:T=10:1) in the presence of escalating concentrations of CD19-TCB for 24 hrs. At 24 hrs, the culture medium was supplemented with 100 nM dasatinib, 100 nM sirolimus or 100 nM ruxolitinib.
To assess whether the mTOR inhibitor sirolimus, the JAK1/2 inhibitor ruxolitinib and the Src inhibitor dasatinib can prevent further release of cytokines induced by the treatment of CD19-TCB, they were added in an in vitro killing assay after 24 hrs of activation (FIG. 78). In this assay CTV labelled NALM-6 tumors cells were co-cultured with PBMCs in the presence of escalating doses of CD19-TCB for 24 hrs. At 24 hrs, 100 nM ruxolitinib, 100 nM sirolimus or 100 nM dasatinib were added in the system. To verify if T cells were activated before the addition of the different kinase inhibitors, tumor cell killing and cytokine release were measured at 24 hrs (FIGS. 79 and 80). Lastly, cytokine release and tumor cell killing were measured at 48 hrs to assess the effect of the addition of 100 nM ruxolitinib, 100 nM sirolimus or 100 nM dasatinib on CD19-TCB-induced cytokine release as compared to the effect on killing.

[1] abbreviates: 1 nM CD20-TCB, three donors, between 18 hours and 44 hours.
Where [2] appears, read: measured at 44 hours, escalating CD20-TCB.

Turning to `CO[C@H]1C[C@@H]2CC[C@@H](C)[C@@](O)(O2)C(=O)C(=O)N2CCCC[C@H]2C(=O)O[C@H]([C@H](C)C[C@@H]2CC[C@@H](OCCO)[C@H](OC)C2)CC(=O)[C@H](C)/C=C(\C)[C@@H](O)[C@@H](OC)C(=O)[C@H](C)C[C@H](C)/C=C/C=C/C=C/1C` [everolimus, Everolimus], the “CTV labelled WSU DLCL2 tumor cell killing” value is “did not impact further” in the assay with WSU DLCL2 tumor cells (setting [1]) and “did not impact” in the assay on WSU DLCL2 tumor cells (setting [2]). Further, the “CD19-TCB-dependent killing of CTV labelled SUDLH-8 cells” value (“CD19-TCB-dependent killing” below) in the assay on SUDLH-8 tumor cells is given as “did not prevent”. Moreover, the “B cell depletion induced by CD20-TCB (percentage of CD19+ B cells among human CD45+ cells in peripheral blood)” value in the assay with CD19+ B cells is “did not interfere; also recorded: minimally interfered”.

Consider `N#CC[C@H](C1CCCC1)n1cc(-c2ncnc3[nH]ccc23)cn1` [ruxolitinib, Ruxolitinib], for which the “CTV labelled WSU DLCL2 tumor cell killing” value in the assay with WSU DLCL2 tumor cells (setting [1]) is listed as “did not impact further”; in the assay on WSU DLCL2 tumor cells (setting [2]), “did not impact”. Besides, in the assay on SUDLH-8 tumor cells, the “CD19-TCB-dependent killing” value is “did not prevent”. Further, the “CTV labelled NALM-6 tumor cell killing” value in the assay on NALM-6 tumors cells was “did not prevent”. Besides, the “B cell depletion induced by CD20-TCB (percentage of CD19+ B cells among human CD45+ cells in peripheral blood)” value with CD19+ B cells is given as “slightly interfered; also recorded: minimally interfered”.

For the compound `CO[C@H]1C[C@@H]2CC[C@@H](C)[C@@](O)(O2)C(=O)C(=O)N2CCCC[C@H]2C(=O)O[C@H]([C@H](C)C[C@@H]2CC[C@@H](O)[C@H](OC)C2)CC(=O)[C@H](C)/C=C(\C)[C@@H](O)[C@@H](OC)C(=O)[C@H](C)C[C@H](C)/C=C/C=C/C=C/1C` [sirolimus, Sirolimus], the results for the “CTV labelled WSU DLCL2 tumor cell killing” value with WSU DLCL2 tumor cells (setting [1]) and with WSU DLCL2 tumor cells (setting [2]) were “did not impact further” and “did not impact”, respectively. In addition, the “CD19-TCB-dependent killing” value in the assay on SUDLH-8 tumor cells is “did not prevent”. The “CTV labelled NALM-6 tumor cell killing” value with NALM-6 tumors cells is on record as “did not prevent”. In addition, the “B cell depletion induced by CD20-TCB (percentage of CD19+ B cells among human CD45+ cells in peripheral blood)” value with CD19+ B cells is recorded as “did not interfere; also recorded: minimally interfered”.

With `CO[C@H]1C[C@@H]2CC[C@@H](C)[C@@](O)(O2)C(=O)C(=O)N2CCCC[C@H]2C(=O)O[C@H]([C@H](C)C[C@@H]2CC[C@@H](OC(=O)C(C)(CO)CO)[C@H](OC)C2)CC(=O)[C@H](C)/C=C(\C)[C@@H](O)[C@@H](OC)C(=O)[C@H](C)C[C@H](C)/C=C/C=C/C=C/1C` [temsirolimus, Temsirolimus], the “CTV labelled WSU DLCL2 tumor cell killing” value is recorded as “did not impact further” in the assay with WSU DLCL2 tumor cells (setting [1]) and “did not impact” in the assay on WSU DLCL2 tumor cells (setting [2]). Moreover, in the assay with SUDLH-8 tumor cells, the “CD19-TCB-dependent killing” value was “did not prevent”. Moreover, the “B cell depletion induced by CD20-TCB (percentage of CD19+ B cells among human CD45+ cells in peripheral blood)” value in the assay on CD19+ B cells is “did not interfere; also recorded: minimally interfered”.
